This is an account of results in US20130288964A1, “Use of peptides for promoting wound healing” (priority 2008, published 2013).

Read-outs that look alike come from different tables or passages of the source. Where no end group is shown, it is not given here. Some results are limits rather than exact numbers.

Data set [1] concerns human buccal epithelial cell line TR146. The data set is described as follows: In vitro wound healing (scratch wound closure) experiments. The data set is classed as cell-based. To be noted: for Wound closure rel. clos. ± SD: closure approx. 16 h after wounding relative to negative control, synthetic peptides in SFM, * significant. As to the method:
The human buccal epithelial cell line TR146 (Rupniak et al; J Natl Cancer Inst. 1985 October; 75(4):621-35) was kindly provided by Cancer Research UK. Cells were grown in Dulbecco's modified Eagle medium with 4.5 g/l glucose (Invitrogen), 10% FCS (HyClone) and […] penicillin, […] streptomycin, and 250 ng/ml amphotericinB (Antibiotic antimyotic solution, Sigma,), at 37° C., 95% humidity and 5% CO2. Cells were maintained until near confluence and then briefly treated with 0.25% trypsin-EDTA lx (Invitrogen) to detach them, counted in a hepacytometer and seeded into new flasks or multi-well plates at the required cell density of about 1.5×10×5 cells/well.
Wound assays were performed as previously described (Matthay et al., 1993, J Cell Sci. 106 (Pt 3):869-78). In brief, cells were grown in 12-well plates until confluence, and then were serum deprived for 24 hours in keratinocyte serum free medium (SFM (Invitrogen)). In each well a scratch was made in the cellular monolayer using a sterile tip. The wounded monolayer was washed with SFM to remove cellular debris, and the following conditions were applied: • (i) Whole saliva and salivary secretions applied in 30% (v/v) in SFM. As a negative control 30% (v/v) saliva buffer was used. • (ii) (ii) rhEGF (Invitrogen) as a positive control • (iii) rp-HPLC fractions containing salivary proteins; • (iv) synthetic peptides: the experiments with isolated proteins and synthetic peptides were performed in full SFM.
The width of the wound area was determined microscopically immediately after wound creation and at approximately 16 hours after wounding. The relative closure was calculated by relating the closure to that of the negative control.
For inhibitor studies; directly after wounding cells were exposed to inhibitors of ERK1/2 (U0126, 5 μM, LC Laboratories), EGFR (AG1478, 1 μM, Calbiochem), and p38 MAPK (SB203580, 5 μM; LC Laboratories). Experiments were done in quadruplicate and analyzed using One-way ANOVA to determine significance with additional LSD post hoc test, P<0.05 was considered significant.

For data set [2] the following is noted: Candicidal activity LC50 ± SD. How it is done:
2.3 Potency of Histatin induced wound closure, stereo-specificity of Histatin 2, candidacidal activities of the different histatins. Next the potency of the different Histatins in both wound healing as their candidacidal activities was studied. Histatins are known for their antimicrobial activity.
We tested synthesized Histatins 1, 2, 3, 5 and the enantiomer of Histatin 2 (designated D-Histatin 2) on wound closure and candidacidal activities. In the test concentrations of 1, 5, 10, 30 and 50 μg/ml of the peptides were tested.

For data set [3], the system named is epithelial cells. The data set is described as follows: Internalization of FITC labeled histatin in epithelial cells (microscopy). To be noted: FITC labeled histatin incubated two hours (data not shown). The data set is classed as cell-based, human. As to the method:
Microscope: Leica DM IL PLAN 4-40x magnification, 0.5 lens; camera: Leica DFC320; and acquisition software: Leica IM500. Images were quantified using Adobe Photoshop CS3. Additionally, brightness/contrast levels of the co-localization studies were altered with Adobe Photoshop CS3. FITC labeled histatin was incubated with the cells for two hours. PI was added to check for membrane disruptive dependent internalization. 100 mM Azide was used for 1 hour. Cells were trypsinized as described above. Co-localization studies were performed using Mitotracker (Invitrogen) and Lysotracker (Invitrogen) following manufacturer's instructions. In Candida Histatin 5 is internalized and associates with the energized mitochondrion. Given the abovementioned discrepancy between C. albicans and epithelial cells we were very interested whether histatins become internalized and where in the cells they accumulate. […] NaN3 inhibits the function of cytochrome c oxidase by binding irreversibly to the heme cofactor. Thus, NaN3 treatment lead us to conclude that the internalization energy dependent. […] Which, in addition to the stereo-specificity, is indicating a receptor mediated process. We used mitochondria and acidic lysosome specific markers to elucidate histatin's fate once it is internalized

On to `CC(C)C[C@H](NC(=O)[C@H](Cc1ccc(O)cc1)NC(=O)[C@H](CC(N)=O)NC(=O)[C@H](CO)NC(=O)[C@H](CCCNC(=N)N)NC(=O)[C@H](Cc1ccc(O)cc1)NC(=O)CNC(=O)[C@H](CCCNC(=N)N)NC(=O)[C@H](Cc1c[nH]cn1)NC(=O)[C@H](CO)NC(=O)[C@H](Cc1c[nH]cn1)NC(=O)[C@H](Cc1c[nH]cn1)NC(=O)[C@H](CCCCN)NC(=O)[C@H](CCC(=O)O)NC(=O)[C@H](Cc1c[nH]cn1)NC(=O)[C@H](Cc1ccccc1)NC(=O)[C@H](CCCCN)NC(=O)[C@H](CCCNC(=N)N)NC(=O)[C@H](CCCCN)NC(=O)[C@H](Cc1ccc(O)cc1)NC(=O)CNC(=O)[C@H](Cc1c[nH]cn1)NC(=O)[C@H](Cc1c[nH]cn1)NC(=O)[C@H](CCCNC(=N)N)NC(=O)[C@H](CCCCN)NC(=O)[C@H](C)NC(=O)[C@H](Cc1c[nH]cn1)NC(=O)[C@H](CO)NC(=O)[C@@H](N)CC(=O)O)C(=O)N[C@@H](Cc1ccc(O)cc1)C(=O)N[C@@H](CC(=O)O)C(=O)N[C@@H](CC(N)=O)C(=O)O` [Histatin 3], for which the “Wound closure rel. clos. ± SD” value in data set [1] is on record as 1.21 ± 0.12*. The “induction of wound closure” value in data set [1] (synthesized peptides, 1-50 μg/ml) is given as “induce wound closure”. In addition, the “optimal concentration for wound closure” value in data set [1] (tested at 1, 5, 10, 30 and 50 μg/ml) is 30 to 50 µg/mL. For the same compound, the CC50 was 1.1 ± 0.1 µM in data set [2] (1 mM PPB) and more than 100 µM in data set [2] (SFM). Moreover, in data set [3], the “internalization into epithelial cells” value is reported as “are internalized”.

“C-HST1: cyclic peptide having the amino acid sequence according to SEQ. ID. NO. 4, Histatin 1 (DSHEKRHHGYRRKFHEKHHSHREFPFYGDYGSNYLYDN; also: cyclic (type and places not given here))”: the relative wound closure in data set [1] (peptide concentration 1*10-3 μM, 1 = no peptide added (FIG. 4)) was 1.5.

Consider “EGF: epidermal growth factor; rhEGF (Invitrogen) as a positive control”, for which, in data set [1] (EGF 5 ng/ml), the “induction of wound closure” value was “able to induce wound closure”. The “induced wound closure with EGF receptor blocked” value in data set [1] (EGFR inhibitor AG1478 1 μM) is “abolished the effect”. Moreover, the “Wound closure rel. clos. ± SD” value in data set [1] was 1.41 ± 0.12*. Moreover, in data set [1] (inhibitors U0126 5 μM (ERK1/2), SB203580 5 μM (p38 MAPK), FIG. 2), the “MAPK pathway dependence of induced wound closure” value is “p38^MAPK dependent”.
